Assay results reported in US11053204B2, “Pyrimidinyloxy benzene derivatives as herbicides” (FMC Corporation, priority 2015, dated 2021).

Legend:
Assay type in all cases: in vivo
[1] = test system: Italian ryegrass (Lolium multiflorum); assay: Test A preemergence, visual injury rating
How it was run: (§1)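 Greenhouse pot test, loam/sand soil. Formulation: non-phytotoxic solvent mix plus surfactant. Pre: directed spray onto soil after sowing. Post: plants at 1–2 leaf, 2–10 cm. Rated visually vs untreated controls at ~10 d, 0 (no effect) to 100 (complete control).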

[2] = test system: barnyardgrass (Echinochloa crus-galli); assay: Test A preemergence, visual injury rating
How it was run: as §1

[3] = test system: giant foxtail (Setaria faberii); assay: Test A preemergence, visual injury rating
How it was run: as §1

kochia (Kochia scoparia) [4] = assay: Test A preemergence, visual injury rating
How it was run: as §1

[5] = test system: pigweed (Amaranthus retroflexus); assay: Test A preemergence, visual injury rating
How it was run: as §1

[6] = test system: ragweed (common ragweed, Ambrosia elatior); assay: Test A preemergence, visual injury rating
How it was run: as §1

[7] = test system: barnyardgrass (Echinochloa crus-galli); assay: Test B flooded paddy test, plant response rating; details: 250 g ai/ha; Flood; scale of 0 to 100 where 0 is no effect and 100 is complete control; 13 to 15 days
How it was run: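 Visual injury ratings against untreated controls, taken 13 to 15 days after compound was added to paddy water standing 3 cm above the soil.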

[8] = test system: barnyardgrass (Echinochloa crus-galli); assay: Test C postemergence, plant response rating; details: for Plant response rating, Barnyardgrass: scale 0 to 100; for Barnyardgrass plant response rating: scale 0 to 100 (0 no effect, 100 complete control)
How it was run: (§2)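 Both timings shared one formulation, a non-phytotoxic solvent mixture with surfactant, and a greenhouse period of 13 to 15 d. Preemergence used seeded loam/sand or silt loam soil, postemergence used 2 to 18 cm plants; visual ratings ran from 0 (no effect) to 100 (complete control).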

[9] = test system: blackgrass (Alopecurus myosuroides); assay: Test C postemergence, plant response rating; details: for Plant response rating, Blackgrass: scale 0 to 100; for Blackgrass plant response rating: scale 0 to 100 (0 no effect, 100 complete control)
How it was run: as §2

corn (Zea mays) = assay: Test C postemergence, plant response rating; details: for Corn plant response rating: scale 0 to 100 (0 no effect, 100 complete control)
How it was run: as §2

[10] = test system: crabgrass, large (large crabgrass, Digitaria sanguinalis); assay: Test C postemergence, plant response rating; details: for Crabgrass, Large plant response rating: scale 0 to 100 (0 no effect, 100 complete control)
How it was run: as §2

[11] = test system: galium (catchweed bedstraw, Galium aparine); assay: Test C postemergence, plant response rating; details: for Galium plant response rating: scale 0 to 100 (0 no effect, 100 complete control)
How it was run: as §2

kochia (Kochia scoparia) [12] = assay: Test C postemergence, plant response rating; details: for Kochia plant response rating: scale 0 to 100 (0 no effect, 100 complete control)
How it was run: as §2

[13] = test system: morningglory (Ipomoea coccinea); assay: Test C postemergence, plant response rating; details: for Morningglory plant response rating: scale 0 to 100 (0 no effect, 100 complete control)
How it was run: as §2

[14] = test system: nutsedge, yellow (yellow nutsedge, Cyperus esculentus); assay: Test C postemergence, plant response rating; details: for Nutsedge, Yellow plant response rating: scale 0 to 100 (0 no effect, 100 complete control)
How it was run: as §2

[15] = test system: oilseed rape (Brassica napus); assay: Test C postemergence, plant response rating; details: for Oilseed Rape plant response rating: scale 0 to 100 (0 no effect, 100 complete control)
How it was run: as §2

[16] = test system: wheat (winter wheat, Triticum aestivum); assay: Test C postemergence, plant response rating
How it was run: as §2

[17] = 31 g ai/ha, 0 to 100 scale, 0 no effect, 100 complete control
[18] = 125 g ai/ha, 0 to 100 scale (0 no effect, 100 complete control)

`O=C(CCC(F)(F)C(F)(F)F)c1c(Br)cccc1Oc1ncc(Cl)cn1` [Compound 110] was tested, and the “Plant response rating, Ryegrass, Italian” value [1, 17] was 0, the “Plant response rating, Ryegrass, Italian” value [1, 18] was 70 and the “Plant response rating, Barnyardgrass” value [2, 17] was 40. The “Barnyardgrass plant response rating” value [2, 18] was 100, the “Plant response rating, Foxtail, Giant” value [3, 17] was 80 and the “Plant response rating, Foxtail, Giant” value [3, 18] was 100. The “Plant response rating, Kochia” value (kochia (Kochia scoparia) [4]; [17]) was 10, the “Plant response rating, Kochia” value (kochia (Kochia scoparia) [4]; [18]) was 100 and the “Plant response rating, Pigweed” value [5, 17] was 40. For the same compound, the “Plant response rating, Pigweed” value [5, 18] was 100, the “Plant response rating, Ragweed” value [6, 17] was 0 and the “Plant response rating, Ragweed” value [6, 18] was 0. For the same compound, the “Plant response rating, Barnyardgrass” value [7] was 25, the “Plant response rating, Barnyardgrass” value ([8]; 16 g ai/ha) was 10 and the “Plant response rating, Barnyardgrass” value ([8]; 31 g ai/ha) was 10. The “Barnyardgrass plant response rating” value ([8]; 62 g ai/ha) was 20, the “Barnyardgrass plant response rating” value ([8]; 125 g ai/ha) was 30 and the “Plant response rating, Blackgrass” value ([9]; 16 g ai/ha) was 10. For the same compound, the “Plant response rating, Blackgrass” value ([9]; 31 g ai/ha) was 15, the “Blackgrass plant response rating” value ([9]; 62 g ai/ha) was 20 and the “Blackgrass plant response rating” value ([9]; 125 g ai/ha) was 25. For the same compound, the “Plant response rating, Corn” value (corn (Zea mays); 16 g ai/ha, scale of 0 to 100) was 10, the “Plant response rating, Corn” value (corn (Zea mays); 31 g ai/ha, scale 0 to 100) was 20 and the “Corn plant response rating” value (corn (Zea mays); 62 g ai/ha) was 20. For the same compound, the “Corn plant response rating” value (corn (Zea mays); 125 g ai/ha) was 15, the “Plant response rating, Crabgrass, Large” value ([10]; 16 g ai/ha, scale of 0 to 100) was 10 and the “Plant response rating, Crabgrass, Large” value ([10]; 31 g ai/ha, scale 0 to 100) was 20. For the same compound, the “Crabgrass, Large plant response rating” value ([10]; 62 g ai/ha) was 25, the “Crabgrass, Large plant response rating” value ([10]; 125 g ai/ha) was 60 and the “Plant response rating, Galium” value ([11]; 16 g ai/ha, scale of 0 to 100) was 60. For the same compound, the “Plant response rating, Galium” value ([11]; 31 g ai/ha, scale 0 to 100) was 75, the “Galium plant response rating” value ([11]; 62 g ai/ha) was 75 and the “Galium plant response rating” value ([11]; 125 g ai/ha) was 90. For the same compound, the “Plant response rating, Kochia” value (kochia (Kochia scoparia) [12]; 16 g ai/ha, scale of 0 to 100) was 95, the “Plant response rating, Kochia” value (kochia (Kochia scoparia) [12]; 31 g ai/ha, scale 0 to 100) was 100 and the “Kochia plant response rating” value (kochia (Kochia scoparia) [12]; 62 g ai/ha) was 100. For the same compound, the “Kochia plant response rating” value (kochia (Kochia scoparia) [12]; 125 g ai/ha) was 100, the “Plant response rating, Morningglory” value ([13]; 16 g ai/ha, scale of 0 to 100) was 30 and the “Plant response rating, Morningglory” value ([13]; 31 g ai/ha, scale 0 to 100) was 50. For the same compound, the “Morningglory plant response rating” value ([13]; 62 g ai/ha) was 60, the “Morningglory plant response rating” value ([13]; 125 g ai/ha) was 50 and the “Plant response rating, Nutsedge, Yellow” value ([14]; 16 g ai/ha, scale of 0 to 100) was 0. For the same compound, the “Plant response rating, Nutsedge, Yellow” value ([14]; 31 g ai/ha, scale 0 to 100) was 5, the “Nutsedge, Yellow plant response rating” value ([14]; 62 g ai/ha) was 5 and the “Nutsedge, Yellow plant response rating” value ([14]; 125 g ai/ha) was 5. For the same compound, the “Plant response rating, Oilseed Rape” value ([15]; 16 g ai/ha, scale of 0 to 100) was 60, the “Plant response rating, Oilseed Rape” value ([15]; 31 g ai/ha, scale 0 to 100) was 60 and the “Oilseed Rape plant response rating” value ([15]; 62 g ai/ha) was 85. For the same compound, the “Oilseed Rape plant response rating” value ([15]; 125 g ai/ha) was 95, the “Plant response rating, Wheat” value ([16]; 16 g ai/ha, scale of 0 to 100) was 5 and the “Plant response rating, Wheat” value ([16]; 31 g ai/ha, scale 0 to 100) was 5. The “Wheat plant response rating” value ([16]; 125 g ai/ha, scale 0 to 100 (0 no effect, 100 complete control)) was 15.
